The values that follow come from PubChem BioAssay AID608 (Sanford-Burnham Center for Chemical Genomics, 2007).

Calls of active or inactive are those of the source. The rule behind the calls is not given here.

Chain of Peptidyl-prolyl cis-trans isomerase FKBP1A (Homo sapiens) (P62942 whole entry, looked up): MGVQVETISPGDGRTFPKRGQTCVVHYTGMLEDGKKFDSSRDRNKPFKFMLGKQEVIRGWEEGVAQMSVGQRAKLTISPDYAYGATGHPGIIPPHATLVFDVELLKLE

This experiment has as its target Peptidyl-prolyl cis-trans isomerase FKBP1A (Homo sapiens) (UniProt P62942). Nature of the experiment: FKBP12 binders, biophysical, NMR detection (AID 608). The following applies: NMR binding, purified FKBP12.
For the compound `COc1cc(CNCc2cccs2)ccc1OCC(=O)N1CCOCC1`, the Kd (as a rule, the constant that tells how readily two partners part at equilibrium) is > 4 mM (inactive).

In the case of `O=C(COc1ccccc1)N1CCc2ccccc2C1`, the Kd was > 4 mM (inactive). In the case of `CC1CN(C(=O)c2sc3cccc(F)c3c2Cl)CC(C)O1` (centres undefined), the Kd was > 13.6 mM (inactive). For `NC(=O)c1ccsc1N` the value was > 4 mM (inactive); for `Cc1c(C(=O)O)cnn1-c1ccccc1`, > 4 mM (inactive). For `CSc1nnc2[nH]c(=O)cc(N)n12` the value was > 4 mM (inactive); for `O=S1(=O)C=CC(N2CCCCC2)C1` (centres undefined), > 4 mM (inactive); for `Cc1ncc(C(=O)O)c(-c2ccccc2)n1`, > 4 mM (inactive). To `Nc1ccc(N2CCOCC2)cc1` belongs > 4 mM (inactive); to `CC1(c2ccncc2)NC(=O)NC1=O` (centres undefined), > 4 mM (inactive). For `O=C(O)c1ccccc1N1CCOCC1`, the Kd is > 4 mM (inactive). For `CCOc1ccc(C(=O)c2ccncc2)cc1` the value was > 4 mM (inactive); for `NC(=O)c1ccc(C(N)=O)cc1`, > 4 mM (inactive); for `O=C(Cc1c(F)cccc1Cl)Nc1ccncc1`, > 4 mM (inactive). For `c1n[nH]cc1-c1cn[nH]c1` the value was > 4 mM (inactive).

Take `O=C1CC(N2CCC(O)CC2)C(=O)N1c1ccc(F)cc1` (centres undefined): the Kd was > 4 mM (inactive).

As to `Oc1cc(O)c2c(c1)O[C@H](c1cc(O)c(O)c(O)c1)[C@H](O)C2`, the Kd was > 4 mM (inactive). In the case of `CC1SC(=NC(=O)c2ccncc2)NC1=O` (centres undefined), the Kd was > 4 mM (inactive).

In the case of `Cc1n[nH]c(C)c1NC(=O)c1cccc(F)c1`, the Kd was > 4 mM (inactive). For `NCc1ccc(-n2cccc2)cc1` the value was > 4 mM (inactive). Take `C[C@@H]1C(=O)OC2[C@H](O)C34[C@@H]5OC(=O)[C@@]3(O[C@@H]3OC(=O)[C@H](O)[C@@]34[C@H](C(C)(C)C)[C@H]5O)[C@]21O` (some centres undefined): the Kd was > 4 mM (inactive). As for `CCC1(CC)C(=O)NC(=O)N=C1N`, the Kd was > 4 mM (inactive).

`C=CCn1c(=S)[nH]c2ccc(Br)cc2c1=O`: the Kd was > 4 mM (inactive). Regarding `Cc1c(N=CN(C)C)c(=O)n(-c2ccccc2)n1C`, the Kd is > 4 mM (inactive). For `Nc1ccc2[nH]ncc2c1` the value was > 4 mM (inactive). For `C=C1C2CC[C@@]3(C)[C@H](c4ccoc4)OC(=O)C[C@]13O[C@H]1CC(=O)C(C)(C)C(CC(=O)OC)C21C` (some centres undefined) the value was > 4 mM (inactive); for `Nc1nc2ccccc2n1CCN1CCCC1`, > 4 mM (inactive). To `COc1ccc2c(c1)OCC(Cc1ccc(OC)c(OC)c1)C2=O` (centres undefined) belongs > 4 mM (inactive); to `O=C(Nc1ccon1)c1ccccc1Cl`, > 4 mM (inactive); to `CC1=NN(C(N)=S)C(C)(C)C1`, > 4 mM (inactive). Consider `Cc1ccc(SCc2nc(-c3cccnc3)no2)cc1`, for which the Kd is > 4 mM (inactive). In the case of `Fc1cccc(F)c1CN1CCN(c2ncccn2)CC1`, the Kd was > 4 mM (inactive). Consider `Cc1ccccc1NC(=O)CC1SC(N)=NC1=O` (centres undefined), for which the Kd is > 4 mM (inactive). To `N/C(=N/S(=O)(=O)c1cccs1)c1ccccc1` belongs > 4 mM (inactive); to `Cc1ccccc1CSc1nncn1N`, > 4 mM (inactive).

Regarding `S=C(NCc1cccnc1)NC1CC1`, the Kd is > 4 mM (inactive). For `CC1C[C@H]2CC(=O)[C@H]3CCCN4CCC[C@H]2[C@]34C1` (some centres undefined) the value was > 4 mM (inactive). Turning to `CC(=O)Oc1ccc(/C=C/c2cc(OC(C)=O)cc(OC(C)=O)c2)cc1`, the Kd is > 4 mM (inactive). Regarding `Cc1n[nH]c(=O)nc1N1CCN(c2ccccc2)CC1`, the Kd was > 4 mM (inactive). Consider `CCOC(=O)c1c(-c2ccncc2)csc1N`, for which the Kd is > 4 mM (inactive). As for `CC(=O)NCC1OCCc2ccccc21` (centres undefined), the Kd was > 4 mM (inactive). In the case of `Cc1cc(NC(=O)CCCn2cnc([N+](=O)[O-])n2)no1`, the Kd was > 4 mM (inactive). For `Cc1cc(C)n2nc(C(=O)NCc3ccco3)nc2n1` the value was > 4 mM (inactive). To `CC(=O)Nc1nnc(-c2ccccc2)o1` belongs > 4 mM (inactive); to `O=C(O)c1ccc(-c2ccccn2)s1`, > 4 mM (inactive); to `c1ccc(-c2nnc3sc(-c4ccncc4)nn23)cc1`, > 4 mM (inactive). For `CN1C(=O)C2CC=C(Cl)CC2C1=O` (centres undefined) the value was > 4 mM (inactive); for `OC[C@@H](O)[C@@H](O[C@@H]1O[C@H](CO)[C@@H](O)[C@H](O)[C@H]1O)[C@H](O)[C@@H](O)CO`, > 4 mM (inactive); for `O=C(Nc1nnc(-c2cccnc2)o1)c1ccccc1F`, > 4 mM (inactive). For the compound `Cc1cc2nc(SCC(=O)O)nc(C)c2cc1C`, the Kd was > 4 mM (inactive).

`O=c1c(O)c(-c2ccc(O)c(O)c2)oc2cc(O)ccc12`: the Kd was > 4 mM (inactive).

As for `Cc1nnc(NCCN2CCOCC2)[nH]c1=O`, the Kd was > 4 mM (inactive). Consider `O=c1cc(-c2ccccc2)oc2cc(O)c(O)c(O)c12`, for which the Kd is > 4 mM (inactive). For `CSc1cc(C)[nH]c(=O)n1` the value was > 4 mM (inactive); for `Cc1ccccc1-n1c(N)cc(=O)[nH]c1=S`, > 4 mM (inactive); for `NCCC(=O)N[C@@H](Cc1cnc[nH]1)C(=O)O`, > 4 mM (inactive). As for `Cc1nnc(C)n1/N=C/c1cccs1`, the Kd is > 4 mM (inactive). To `Cn1ncc2c(=O)n(CC(=O)c3ccccc3)cnc21` belongs > 4 mM (inactive); to `COc1cccc2c1CCC1=CC(=O)CC[C@@]12C`, > 4 mM (inactive); to `NC(=O)C1CCN(C(=S)c2ccccc2)CC1`, > 4 mM (inactive). To `OC(c1ccccc1)c1ccccn1` (centres undefined) belongs > 4 mM (inactive).

As for `C=C1C2=CC(=O)O[C@@H](c3ccoc3)[C@]2(C)CCC1[C@@]1(C)C=CC(=O)C(C)(C)[C@@H]1CC(=O)OC` (some centres undefined), the Kd is > 4 mM (inactive). For `NCc1cccc2c1OCCO2` the value was > 4 mM (inactive). `Nc1ccc(-c2csnn2)cc1`: the Kd was > 4 mM (inactive). For the compound `Brc1ccccc1Cn1c(-c2cscn2)nc2ccccc21`, the Kd result was “inactive”.

In the case of `O=c1nc(C(F)(F)F)nc2ccccn12`, the Kd is > 4 mM (inactive). To `COc1ccc(/C=C2/NC(=S)NC2=O)cc1` belongs > 4 mM (inactive); to `Cc1nn(C)c(N2CCOCC2)c1N`, > 4 mM (inactive). Regarding `O=C(NCC1CCNCC1)c1ccncc1`, the Kd is > 4 mM (inactive). To `Cc1noc(C)c1C(=O)NCc1ccco1` belongs > 4 mM (inactive); to `NC(=O)C1(c2ccccc2)CCOCC1`, > 4 mM (inactive); to `C=C1C([C@]2(C)C(CC(=O)OC)[C@@](C)(COC(C)=O)OC(=O)C[C@@H]2OC(C)=O)[C@@H](OC=O)[C@H](OC(=O)C(OC(C)=O)C(C)CC)[C@@]2(C)[C@H](c3ccoc3)CC(=O)C12O` (some centres undefined), > 4 mM (inactive). To `CC(Sc1ncn[nH]1)C(=O)O` (centres undefined) belongs > 4 mM (inactive); to `NC(=O)c1cc(N)cc(C(N)=O)c1`, > 4 mM (inactive).
